Measured values: US11426441B2, “Composition comprising protein phosphatase 1 inhibitory peptide for treating vascular diseases” (BethphaGen Inc., priority 2016, dated 2022)
No end group written: not given here.

How the values were obtained:
RASMCs = assay: In vitro cell scratch assay (RASMC migration); format: cell-based, rat; details: 3 μM peptide
Description: RASMCs isolated from the thoracic aorta were cultured in DMEM supplemented with 0.1% (v/v) FBS (Contractile) or in DMEM supplemented with 10% (v/v) FBS (Synthetic) in the presence of 3 μM of control peptide (Con; SEQ ID NO: 23) or ψPLB-SE peptide (SEQ ID NO: 2). Alternatively, RASMC cultured in DMEM supplemented with 0.1% (v/v) FBS were treated with 10 ng/ml of PDGF-BB (R&D Systems) (Synthetic) in the presence of 3 μM control or ψPLB-SE peptide. A region of the RASMC layer was removed by scratching the plate with a sterile 200 μL pipette tip. The cells were incubated for 12 hours or 24 hours and then observed under an 1×80 microscope (Olympus). The distance traveled by the cells was measured using MetaMorph software.

cytosolic Ca^2+ level = assay: Intracellular Ca2+ measurement in RASMCs; format: cell-based, rat; details: 10% FBS, 3 μM peptide
Description: FIGS. 4a, 4b, 4c and 4d. (4a-4c) HCSMCs were pretreated with 3 μM ψPLB-SE and 15 μM MDL28170 for 1 hour, and then treated with 50 μM A23187 for 2 hours. (4a) Immunostaining was performed with antibodies against SERCA2a and SERCA2b (green). Nuclei were stained with Hoechst (blue). Representative merged images are shown. Scale bar, 50 μm. (4b) Western blot analysis was performed with cell extracts. Data are expressed as the means±SD (n=3-4; *, P<0.05). (4c) Baseline Ca^2+ concentration was measured by lonOptix calcium imaging system. (4d) RASMC were treated with ψPLB-SE or control peptide under the same conditions as described for FIG. 1B. The baseline Ca^2+ concentration was measured by lonOptix calcium imaging system (*, P<0.05).
The intracellular Ca^2+ level was measured in VSMCs by loading cells with 0.5 μM Fura2-AM (Molecular Probes, Eugene Oreg., USA), a Ca^2+-sensitive indicator, for 15 minutes at 37. The fluorescence was recorded using the lonOptix calcium imaging system. VSMCs were stimulated by the exposure to light emitted by a 75 W halogen lamp through either a 340 nm or 380 nm filter. The fluorescent emissions were detected between 480 nm and 520 nm by a photomultiplier tube after an initial illumination at 340 nm for 0.5 second and then at 380 nm during recording. […]

eNOS and Akt = eNOS and Akt phosphorylation in PAECs (western blotting); format: cell-based
Description: FIGS. 16a, 16b and 16c. (16a-16b) PAECs were treated with 3 μM ψPLB-SE for 1 hour, and protein expression was quantitatively analyzed through western blotting using antibodies against Phospho-eNOS (ser1177), total eNOS, phospho-Akt (Ser473, Thr308), total Akt, and GAPDH. (16c) The pulmonary tissue lysate was subjected to immunoprecipitation using PP1 antibody to investigate the interactions of PP1 with eNOS and Akt depending on the presence or absence of the treatment with ψPLB-SE using respective antibodies therefor.
FIGS. 17a, 17b and 17c. (17a) PAECs were treated with 50 μM LY294002, a PI3K inhibitor, for 24 hours, and then treated with 3 μM ψPLB-SE for 1 hour. Protein expression was quantitatively analyzed through western blotting using antibodies against Phospho-eNOS (ser1177), total eNOS, phospho-Akt (Ser473, Thr308), total Akt, and GAPDH. (17b) PAECs were treated with 10 μM inhibitor IV, an Akt inhibitor, for 2 hours, and then treated with 3 μM ψPLB-SE for 1 hour. Protein expression was quantitatively analyzed through western blotting using antibodies against total eNOS and GAPDH. (17c) PAECs were treated with 100 nM OA, a PP1 inhibitor, for 24 hours, and then treated with 3 μM ψPLB-SE for 1 hour. Protein expression was quantitatively analyzed through western blotting using antibodies against Phospho-eNOS (ser1177), total eNOS, phospho-Akt (Ser473, Thr308), total Akt, and GAPDH.
ψPLB-SE (RAE16TIEMPQ; SEQ ID NO: 2) was derived from the PLB protein sequence surrounding the Ser16 phosphorylation site. To facilitate uptake into cells, the peptide was conjugated to the cell penetrating peptide dNP2 ([…]; SEQ ID NO: 21) or TAT (YGRKKRRQRRR; SEQ ID NO: 22). The peptides used in the present invention were PLB-SE (RAETIEMPQ; SEQ ID NO: 2) and control peptide (RASTIEMPQ; SEQ ID NO: 23). PLB-SE and cell penetrating peptide were connected by a linker peptide (GGG; SEQ ID NO: 24) The peptides (purity of 95% or higher, AnyGen, Gwangju, Korea) was resuspended in double-distilled water or physiological saline at a stock concentration of 3 mM (cells), 2.5 mg/ml (rats), or 500 μg/ml (mice). The rats were treated with 1 mg/kg peptides and mice were treated with 2 mg/kg peptides. The rat aortic smooth muscle cells (RASMCs), human coronary smooth muscle cells (HCSMCs), pulmonary arterial endothelial cells (PAECs), and pulmonary arterial smooth muscle cells (PASMCs) were treated with the peptides at a final concentration of 3 μM for 1 hour. The PI3K inhibitor LY294002 (Millipore, USA), the Akt inhibitor Inhibitor IV (Calbiochem, USA), and the PP1 inhibitor okadaic acid (Sigma Aldrich, USA), used in the experiments using pulmonary arterial endothelial cells (PAECs), were purchased. For the monocrotaline aqueous solution, the monocrotaline powder (Sigma Aldrich, USA) was dissolved in a small amount of a 1 M hydrochloric acid solution (HCL), diluted with sterilized distilled water, and adjusted to pH 7.35 by addition of sodium hydroxide (NaOH). The animals were bred and observed in the same conditions as in the control group during the experiment periods. In addition, the calcium ionophore A23187 and the calpain I and II inhibitors MDL28170 and […] were purchased from Sigma-Aldrich (St. Louis, Mo., USA).
Vascular smooth muscle cells (VSMCs) were homogenized in a minimal volume of 50 mM Tris-HCl, pH 7.4, supplemented with a broad-spectrum protease inhibitor cocktail (Calbiochem). The proteins were separated by SDS-PAGE and then transferred to polyvinylidene fluoride membranes (Schleicher & Schuell). After blocking with 5% (w/v) non-fat milk for 1 hour and washing with TBST, the membranes were incubated with antibodies against SERCA2a, SERCA2b (21st century biochemical), PCNA (abcam), GAPDH (Sigma-Aldrich), phospho-eNOS, eNOS, phospho-eIF2α, eIF2α (cell signaling), Vimentin, α-SMA, BMPR2 (Santa cruz), phospho-Akt, Akt (cell signaling), phospho-phospholamban (Merck), and Phospholamban (cell signaling). […]

RAETIEMPQ (not fully specified) [ψPLB-SE, 9-mer PP1 decoy peptide mimicking phosphorylated PLB; conjugated via GGG linker to cell penetrating peptide dNP2 or TAT]
increased migratory activity of RASMCs (RASMCs; synthetic conditions (10% FBS)): inhibited | increased migratory activity of RASMCs (RASMCs; treatment with PDGF-BB 10 ng/ml): inhibited | cytosolic Ca^2+ level elevated under synthetic conditions (cytosolic Ca^2+ level): decreased | phosphorylation of Akt and eNOS (eNOS and Akt; 100 nM okadaic acid followed by ψPLB-SE): further increased | phosphorylation of Akt serine 473 and threonine 308 (eNOS and Akt; 3 μM for 1 hour): increased | phosphorylation of eNOS serine 1177 (eNOS and Akt; 3 μM for 1 hour): increased | phosphorylation of eNOS threonine 495 (eNOS and Akt; 3 μM for 1 hour): reduced | eNOS phosphorylation (eNOS and Akt; Inhibitor IV 10 μM then ψPLB-SE): did not increase | phosphorylation of eNOS and Akt (eNOS and Akt; LY294002 50 μM followed by ψPLB-SE): increased
